This note sets out measurements from US20250304567A1, “PYRROLIDIONE DERIVATIVES AS INHIBITORS OF NF KAPPA B INDUCING KINASE” (priority 2022, published 2025).

Read-outs that look alike come from different tables or passages of the source.

Assay [1] deals with Recombinant Human NF-kappaB-Inducing Kinase (NIK/MAP3K14) (Homo sapiens, UniProt Q99558). Put plainly: Inhibition of auto-phosphorylation of recombinant human NIK/MAP3K14 activity (AlphaScreen). The format is biochemical. Conditions: 5 μM ATP, 1 nM NIK, average if tested more than once. An outline of the steps: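 GST-tagged NIK (1 nM) auto-phosphorylation with 5 μM ATP, 2 h at 25 °C, pH 7.5 Tris buffer, 0.7% DMSO; stopped with anti-phospho-IKK Ser176/180 antibody and read by AlphaScreen. Signal normalized to full-activity and no-enzyme/no-ATP controls; IC50 from sigmoidal fit of % inhibition vs log concentration.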
Sequence of Recombinant Human NF-kappaB-Inducing Kinase (NIK/MAP3K14) (Q99558 whole entry): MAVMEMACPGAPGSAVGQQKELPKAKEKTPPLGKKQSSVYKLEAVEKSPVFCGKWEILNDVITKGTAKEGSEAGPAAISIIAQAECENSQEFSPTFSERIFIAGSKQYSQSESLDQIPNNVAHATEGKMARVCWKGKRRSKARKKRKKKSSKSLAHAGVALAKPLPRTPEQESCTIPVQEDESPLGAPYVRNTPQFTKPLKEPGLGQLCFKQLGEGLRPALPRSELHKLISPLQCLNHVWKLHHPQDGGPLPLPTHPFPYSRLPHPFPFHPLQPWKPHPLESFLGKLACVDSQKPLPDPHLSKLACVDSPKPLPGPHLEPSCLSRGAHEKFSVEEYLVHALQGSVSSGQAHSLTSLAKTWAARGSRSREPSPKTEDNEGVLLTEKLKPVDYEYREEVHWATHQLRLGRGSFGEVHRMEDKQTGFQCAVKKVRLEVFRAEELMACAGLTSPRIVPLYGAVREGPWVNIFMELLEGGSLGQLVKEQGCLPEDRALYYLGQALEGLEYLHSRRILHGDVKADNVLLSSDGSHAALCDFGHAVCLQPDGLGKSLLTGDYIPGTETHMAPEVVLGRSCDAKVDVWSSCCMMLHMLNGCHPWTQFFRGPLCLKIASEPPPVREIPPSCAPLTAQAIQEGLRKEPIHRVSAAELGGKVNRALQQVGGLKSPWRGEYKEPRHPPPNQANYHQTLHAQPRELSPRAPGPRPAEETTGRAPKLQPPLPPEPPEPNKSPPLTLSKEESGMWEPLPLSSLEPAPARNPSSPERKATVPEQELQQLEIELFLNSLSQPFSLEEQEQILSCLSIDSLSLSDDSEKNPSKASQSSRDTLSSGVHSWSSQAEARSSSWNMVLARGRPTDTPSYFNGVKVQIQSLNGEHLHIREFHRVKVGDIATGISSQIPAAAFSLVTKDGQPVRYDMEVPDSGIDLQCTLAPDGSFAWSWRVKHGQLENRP

In assay [2] the test system is p-IKKa levels in L363 (NIK translocated multiple myeloma) cells. Put plainly: Effect of compounds on p-IKKa levels in L363 (NIK translocated multiple myeloma) cells (AlphaLISA SureFire Ultra p-IKKa Ser176/180). The format is cell-based, human. As to conditions: average if tested more than once, read-out: Assay 2 IC50. In outline: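 L363 multiple myeloma cells, BAFF-stimulated overnight (250 ng/ml), then 6 h at 37 °C with compound (11-point 1:3 series, 0.3% DMSO) plus BAFF and 10 μM MG132. p-IKKa Ser176/180 read by AlphaLISA SureFire Ultra; IC50 from sigmoidal fit normalised to stimulated and unstimulated controls.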

Setting [3] is: Homo sapiens, L-363, p-IKKa levels in L363 cells.

With `CN1CC[C@@](O)(c2cccc(-c3nc(-c4ccnc(Nc5cn(C)nc5C(F)(F)F)n4)cs3)c2)C1=O` [Example 280, (R)-3-Hydroxy-1-methyl-3-(3-(4-(2-((1-methyl-3-(trifluoromethyl)-1H-pyrazol-4-yl)amino)pyrimidin-4-yl)thiazol-2-yl)phenyl)pyrrolidin-2-one], the concentration for half-maximal inhibition (IC50) in assay [1] is below 100 nM; in assay [2] (setting [3]), 100 to 500 nM.
The like results for `CN1CC[C@@](O)(c2cccc(-c3nc(-c4ccnc(Nc5cc(C(F)(F)F)nn5C)n4)cs3)c2)C1=O` [Example 281, (R)-3-Hydroxy-1-methyl-3-(3-(4-(2-((1-methyl-3-(trifluoromethyl)-1H-pyrazol-5-yl)amino)pyrimidin-4-yl)thiazol-2-yl)phenyl)pyrrolidin-2-one] were, in that order, below 100 nM and above 501 nM.
The like results for `CN1CC[C@@](O)(c2cccc(-c3nc(-c4ccnc(Nc5cccnc5OC(F)F)n4)cs3)c2)C1=O` [Example 282, (R)-3-(3-(4-(2-((2-(Difluoromethoxy)pyridin-3-yl)amino)pyrimidin-4-yl)thiazol-2-yl)phenyl)-3-hydroxy-1-methylpyrrolidin-2-one] were, in that order, below 100 nM and 100 to 500 nM.
The matching figures for `CN1CC[C@@](O)(c2cccc(-c3nc(-c4ccnc(Nc5cn(C)nn5)n4)cs3)c2)C1=O` [Example 283, (R)-3-hydroxy-1-methyl-3-(3-(4-(2-((1-methyl-1H-1,2,3-triazol-4-yl)amino)pyrimidin-4-yl)thiazol-2-yl)phenyl)pyrrolidin-2-one]: below 100 nM and 100 to 500 nM.
With `CN1CC[C@@](O)(c2cccc(-c3nc(-c4ccnc(Nc5ccn(-c6ccccc6)n5)n4)cs3)c2)C1=O` [Example 284, (R)-3-hydroxy-1-methyl-3-(3-(4-(2-((1-phenyl-1H-pyrazol-3-yl)amino)pyrimidin-4-yl)thiazol-2-yl)phenyl)pyrrolidin-2-one], the IC50 in assay [1] is below 100 nM; in assay [2] (setting [3]), 100 to 500 nM.
The matching figures for `CN1CC[C@@](O)(c2cccc(-c3nc(-c4ccnc(Nc5ccn(C(C)(C)C)n5)n4)cs3)c2)C1=O` [Example 285, (R)-3-(3-(4-(2-((1-(tert-butyl)-1H-pyrazol-3-yl)amino)pyrimidin-4-yl)thiazol-2-yl)phenyl)-3-hydroxy-1-methylpyrrolidin-2-one]: below 100 nM and 100 to 500 nM.
The matching figures for `CN1CC[C@@](O)(c2cccc(-c3nc(-c4ccnc(Nc5ccn(CCO)n5)n4)cs3)c2)C1=O` [Example 286, (R)-3-hydroxy-3-(3-(4-(2-((1-(2-hydroxyethyl)-1H-pyrazol-3-yl)amino)pyrimidin-4-yl)thiazol-2-yl)phenyl)-1-methylpyrrolidin-2-one]: below 100 nM and 100 to 500 nM.
The matching figures for `CN1CC[C@@](O)(c2cccc(-c3nc(-c4ccnc(Nc5cnn(CC6CC6)c5)n4)cs3)c2)C1=O` [Example 287, (R)-3-(3-(4-(2-((1-(cyclopropylmethyl)-1H-pyrazol-4-yl)amino)pyrimidin-4-yl)thiazol-2-yl)phenyl)-3-hydroxy-1-methylpyrrolidin-2-one]: below 100 nM and 100 to 500 nM.
As for `CN1CC[C@@](O)(c2cccc(-c3nc(-c4ccnc(Nc5ccn(CC6CC6)n5)n4)cs3)c2)C1=O` [Example 288, (R)-3-(3-(4-(2-((1-(cyclopropylmethyl)-1H-pyrazol-3-yl)amino)pyrimidin-4-yl)thiazol-2-yl)phenyl)-3-hydroxy-1-methylpyrrolidin-2-one], the concentration for half-maximal inhibition (IC50) in assay [1] is below 100 nM; in assay [2] (setting [3]) it was 100 to 500 nM.
Take `CN1CC[C@@](O)(c2cccc(-c3csc(-c4ccnc(Nc5ccn(CC6CC6)n5)n4)n3)c2)C1=O` [Example 289, (R)-3-(3-(2-(2-((1-(cyclopropylmethyl)-1H-pyrazol-3-yl)amino)pyrimidin-4-yl)thiazol-4-yl)phenyl)-3-hydroxy-1-methylpyrrolidin-2-one]: the IC50 in assay [1] and in assay [2] (setting [3]) was above 501 nM in each case.
Turning to `C[C@H](Nc1nccc(-c2nc(-c3cc([C@]4(O)CCN(C)C4=O)ccn3)cs2)n1)c1ccnn1C` [Example 290, (R)-3-Hydroxy-1-methyl-3-(2-(2-(2-(((S)-1-(1-methyl-1H-pyrazol-5-yl)ethyl)amino)pyrimidin-4-yl)thiazol-4-yl)pyridin-4-yl)pyrrolidin-2-one], the IC50 is below 100 nM in assay [1] and 100 to 500 nM in assay [2] (setting [3]).
The like results for `C[C@@H](Nc1nccc(-c2nc(-c3cc([C@]4(O)CCN(C)C4=O)ccn3)cs2)n1)c1ccnn1C` [Example 291, (R)-3-Hydroxy-1-methyl-3-(2-(2-(2-(((R)-1-(1-methyl-1H-pyrazol-5-yl)ethyl)amino)pyrimidin-4-yl)thiazol-4-yl)pyridin-4-yl)pyrrolidin-2-one] were, in that order, below 100 nM and 100 to 500 nM.
The matching figures for `Cc1nn(CC(F)F)cc1Nc1nccc(-n2ccc(-c3cc([C@]4(O)CCN(C)C4=O)ccn3)n2)n1` [Example 292, (R)-3-(2-(1-(2-((1-(2,2-Difluoroethyl)-3-methyl-1H-pyrazol-4-yl)amino)pyrimidin-4-yl)-1H-pyrazol-3-yl)pyridin-4-yl)-3-hydroxy-1-methylpyrrolidin-2-one]: below 100 nM and below 100 nM.
On to “(trans)-3-hydroxy-1-methyl-3-(3-(4-(2-((1-methyl-1H-pyrazol-3-yl)amino)pyrimidin-4-yl)thiazol-2-yl)phenyl)-5-(trifluoromethyl)pyrrolidin-2-one [Example 37]”, for which the IC50 in assay [1] and in assay [2] (p-IKKa levels in L363 cells) was above 501 nM in each case.
